Test results reported in ChEMBL document CHEMBL4507260 (2021).

How the values were obtained:
Details in all cases: Compound concentration 1000.0 nM
[1] = target: Tyrosine-protein kinase ABL2 (Homo sapiens) (UniProt P42684)
[2] = target: Dual specificity mitogen-activated protein kinase kinase 1 (Homo sapiens) (UniProt Q02750)
[3] = target: Calcium/calmodulin-dependent protein kinase type II subunit alpha (Homo sapiens) (UniProt Q9UQM7)
[4] = target: Serine/threonine-protein kinase 25 (Homo sapiens) (UniProt O00506)
[5] = target: Ribosomal protein S6 kinase alpha-1 (Homo sapiens) (UniProt Q15418)
[6] = target: Mast/stem cell growth factor receptor Kit (Homo sapiens) (UniProt P10721)
[7] = target: Mitogen-activated protein kinase kinase kinase kinase 2 (Homo sapiens) (UniProt Q12851)
[8] = target: Serine/threonine-protein kinase PAK 6 (Homo sapiens) (UniProt Q9NQU5)
[9] = test system: Tyrosine-protein kinase ABL1 (Homo sapiens), P00519 [Q252H]
[10] = target: Mitogen-activated protein kinase 8 (Homo sapiens) (UniProt P45983)
[11] = target: Beta-adrenergic receptor kinase 1 (Homo sapiens) (UniProt P25098)
[12] = test system: Tyrosine-protein kinase ABL1 (Homo sapiens), P00519 [F317L]
[13] = target: Serine/threonine-protein kinase 32B (Homo sapiens) (UniProt Q9NY57)
[14] = test system: Phosphatidylinositol 4,5-bisphosphate 3-kinase catalytic subunit alpha isoform (Homo sapiens), P42336 [H1047Y]
[15] = test system: Epidermal growth factor receptor (Homo sapiens), P00533 [L861Q]
[16] = target: Phosphatidylinositol 4-phosphate 5-kinase type-1 alpha (Homo sapiens) (UniProt Q99755)
[17] = target: Serine/threonine-protein kinase RIO2 (Homo sapiens) (UniProt Q9BVS4)
[18] = test system: Phosphatidylinositol 4,5-bisphosphate 3-kinase catalytic subunit alpha isoform (Homo sapiens), P42336 [E542K]
[19] = target: Mitogen-activated protein kinase kinase kinase 14 (Homo sapiens) (UniProt Q99558)
[20] = target: Serine/threonine-protein kinase DCLK1 (Homo sapiens) (UniProt O15075)
[21] = target: Bone morphogenetic protein receptor type-1B (Homo sapiens) (UniProt O00238)
[22] = target: Serine/threonine-protein kinase RIO3 (Homo sapiens) (UniProt O14730)
[23] = test system: Receptor-type tyrosine-protein kinase FLT3 (Homo sapiens), P36888 [UNDEFINED MUTATION]
[24] = target: Serine/threonine-protein kinase Nek3 (Homo sapiens) (UniProt P51956)
[25] = target: Wee1-like protein kinase 2 (Homo sapiens) (UniProt P0C1S8)
[26] = target: STE20-like serine/threonine-protein kinase (Homo sapiens) (UniProt Q9H2G2)
[27] = target: Phosphatidylinositol 4,5-bisphosphate 3-kinase catalytic subunit gamma isoform (Homo sapiens) (UniProt P48736)
[28] = target: Serine/threonine-protein kinase RIO1 (Homo sapiens) (UniProt Q9BRS2)
[29] = target: Phosphatidylinositol 4-kinase beta (Homo sapiens) (UniProt Q9UBF8)
[30] = target: Vascular endothelial growth factor receptor 3 (Homo sapiens) (UniProt P35916)
[31] = target: Homeodomain-interacting protein kinase 1 (Homo sapiens) (UniProt Q86Z02)
[32] = target: NT-3 growth factor receptor (Homo sapiens) (UniProt Q16288)
[33] = target: Cyclin-dependent kinase 11B (Homo sapiens) (UniProt P21127)
[34] = target: AP2-associated protein kinase 1 (Homo sapiens) (UniProt Q2M2I8)
[35] = target: Myosin-IIIb (Homo sapiens) (UniProt Q8WXR4)
[36] = target: 3-phosphoinositide-dependent protein kinase 1 (Homo sapiens) (UniProt O15530)
[37] = target: Myosin light chain kinase (Homo sapiens) (UniProt Q32MK0)
[38] = target: Peripheral plasma membrane protein CASK (Homo sapiens) (UniProt O14936)
[39] = target: Ribosomal protein S6 kinase beta-1 (Homo sapiens) (UniProt P23443)
[40] = target: Tyrosine-protein kinase Fes/Fps (Homo sapiens) (UniProt P07332)
[41] = target: Serine/threonine-protein kinase Sgk2 (Homo sapiens) (UniProt Q9HBY8)
[42] = target: Serine/threonine-protein kinase OSR1 (Homo sapiens) (UniProt O95747)
[43] = target: cGMP-dependent protein kinase 1 (Homo sapiens) (UniProt Q13976)
[44] = target: Angiopoietin-1 receptor (Homo sapiens) (UniProt Q02763)
[45] = target: 5'-AMP-activated protein kinase catalytic subunit alpha-2 (Homo sapiens) (UniProt P54646)

Measured: residual activity

Chain of Mitogen-activated protein kinase kinase kinase kinase 2 (Homo sapiens) (Q12851 whole entry): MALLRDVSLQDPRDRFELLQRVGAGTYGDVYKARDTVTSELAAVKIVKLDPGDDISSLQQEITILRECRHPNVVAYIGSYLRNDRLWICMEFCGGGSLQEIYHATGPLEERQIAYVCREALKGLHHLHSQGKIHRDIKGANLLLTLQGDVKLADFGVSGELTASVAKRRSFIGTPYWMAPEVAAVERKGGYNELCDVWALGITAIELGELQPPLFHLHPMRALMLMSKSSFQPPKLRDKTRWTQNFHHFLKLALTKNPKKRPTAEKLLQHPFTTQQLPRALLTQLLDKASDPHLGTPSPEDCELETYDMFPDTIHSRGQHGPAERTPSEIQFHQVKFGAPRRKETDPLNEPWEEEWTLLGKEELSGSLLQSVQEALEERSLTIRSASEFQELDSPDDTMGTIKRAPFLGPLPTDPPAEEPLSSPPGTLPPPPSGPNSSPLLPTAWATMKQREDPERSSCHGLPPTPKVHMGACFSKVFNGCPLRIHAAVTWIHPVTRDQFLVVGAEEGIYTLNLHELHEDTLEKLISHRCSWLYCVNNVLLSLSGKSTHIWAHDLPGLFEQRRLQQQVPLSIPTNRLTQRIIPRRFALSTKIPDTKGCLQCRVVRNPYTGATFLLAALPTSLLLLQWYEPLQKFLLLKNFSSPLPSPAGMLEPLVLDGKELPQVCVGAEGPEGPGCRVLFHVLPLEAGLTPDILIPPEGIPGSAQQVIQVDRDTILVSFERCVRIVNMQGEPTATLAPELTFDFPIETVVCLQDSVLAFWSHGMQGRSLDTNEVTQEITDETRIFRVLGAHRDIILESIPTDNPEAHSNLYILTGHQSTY
Chain of Tyrosine-protein kinase Fes/Fps (Homo sapiens) (P07332 whole entry): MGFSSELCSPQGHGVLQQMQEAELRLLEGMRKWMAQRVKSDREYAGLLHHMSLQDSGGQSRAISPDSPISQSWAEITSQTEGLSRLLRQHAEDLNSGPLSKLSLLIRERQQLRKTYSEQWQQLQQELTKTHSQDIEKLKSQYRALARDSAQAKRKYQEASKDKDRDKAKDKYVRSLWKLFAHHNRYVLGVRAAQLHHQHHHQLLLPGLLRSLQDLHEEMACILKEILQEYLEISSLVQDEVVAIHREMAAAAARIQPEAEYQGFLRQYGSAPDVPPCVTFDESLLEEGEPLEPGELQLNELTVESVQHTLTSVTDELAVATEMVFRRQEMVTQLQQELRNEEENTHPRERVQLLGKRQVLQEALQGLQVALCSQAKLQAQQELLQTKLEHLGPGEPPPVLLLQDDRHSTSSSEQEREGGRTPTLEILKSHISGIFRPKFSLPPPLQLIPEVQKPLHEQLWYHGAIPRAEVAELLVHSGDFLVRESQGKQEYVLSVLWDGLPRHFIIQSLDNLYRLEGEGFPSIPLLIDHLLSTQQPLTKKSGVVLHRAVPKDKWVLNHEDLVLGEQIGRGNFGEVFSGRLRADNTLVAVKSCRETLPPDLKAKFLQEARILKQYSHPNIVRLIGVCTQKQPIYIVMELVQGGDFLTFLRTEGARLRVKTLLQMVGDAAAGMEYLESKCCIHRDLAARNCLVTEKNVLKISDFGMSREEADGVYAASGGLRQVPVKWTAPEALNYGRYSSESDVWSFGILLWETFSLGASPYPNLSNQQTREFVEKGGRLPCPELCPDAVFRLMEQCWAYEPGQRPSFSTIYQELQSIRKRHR
Chain of Serine/threonine-protein kinase RIO1 (Homo sapiens) (Q9BRS2 whole entry): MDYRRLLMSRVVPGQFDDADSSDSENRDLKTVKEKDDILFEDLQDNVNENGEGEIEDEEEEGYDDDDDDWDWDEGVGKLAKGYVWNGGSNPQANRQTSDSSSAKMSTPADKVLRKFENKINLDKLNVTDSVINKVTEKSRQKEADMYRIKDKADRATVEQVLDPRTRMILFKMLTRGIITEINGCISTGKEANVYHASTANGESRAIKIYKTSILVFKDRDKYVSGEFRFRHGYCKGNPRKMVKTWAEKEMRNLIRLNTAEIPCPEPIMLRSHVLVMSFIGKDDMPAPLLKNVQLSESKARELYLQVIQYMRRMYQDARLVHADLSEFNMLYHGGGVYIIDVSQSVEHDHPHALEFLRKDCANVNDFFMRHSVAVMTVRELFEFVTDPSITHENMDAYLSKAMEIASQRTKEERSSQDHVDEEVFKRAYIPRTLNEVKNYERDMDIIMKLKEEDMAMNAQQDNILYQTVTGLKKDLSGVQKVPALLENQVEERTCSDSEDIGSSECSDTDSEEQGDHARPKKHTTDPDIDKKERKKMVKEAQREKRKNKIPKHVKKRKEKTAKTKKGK
Chain of Serine/threonine-protein kinase OSR1 (Homo sapiens) (O95747 2-527 limits assumed): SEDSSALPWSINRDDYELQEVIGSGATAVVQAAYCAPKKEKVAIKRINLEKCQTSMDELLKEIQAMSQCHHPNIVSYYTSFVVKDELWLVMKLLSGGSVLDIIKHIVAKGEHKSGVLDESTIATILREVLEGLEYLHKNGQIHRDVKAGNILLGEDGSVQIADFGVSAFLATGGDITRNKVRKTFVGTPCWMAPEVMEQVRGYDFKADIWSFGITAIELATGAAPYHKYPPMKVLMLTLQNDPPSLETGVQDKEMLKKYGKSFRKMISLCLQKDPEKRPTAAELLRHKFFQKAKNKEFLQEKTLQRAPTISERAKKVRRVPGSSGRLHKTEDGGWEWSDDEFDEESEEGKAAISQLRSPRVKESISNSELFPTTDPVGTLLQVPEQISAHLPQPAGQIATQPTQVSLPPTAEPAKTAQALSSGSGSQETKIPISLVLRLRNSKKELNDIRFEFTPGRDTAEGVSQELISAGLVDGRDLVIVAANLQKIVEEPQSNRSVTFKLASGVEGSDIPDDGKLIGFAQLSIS
Chain of Serine/threonine-protein kinase Sgk2 (Homo sapiens) (Q9HBY8 whole entry): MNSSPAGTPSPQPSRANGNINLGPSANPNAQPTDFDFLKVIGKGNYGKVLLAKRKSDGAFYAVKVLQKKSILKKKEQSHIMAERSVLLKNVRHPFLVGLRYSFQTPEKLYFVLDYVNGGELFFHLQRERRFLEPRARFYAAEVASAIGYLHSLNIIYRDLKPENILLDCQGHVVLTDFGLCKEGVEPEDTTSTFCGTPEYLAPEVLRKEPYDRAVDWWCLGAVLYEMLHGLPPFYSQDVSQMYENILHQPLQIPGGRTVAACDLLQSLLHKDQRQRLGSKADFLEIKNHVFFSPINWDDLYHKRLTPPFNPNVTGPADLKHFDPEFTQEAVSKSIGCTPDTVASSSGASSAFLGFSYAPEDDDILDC
Chain of Myosin-IIIb (Homo sapiens) (Q8WXR4 whole entry): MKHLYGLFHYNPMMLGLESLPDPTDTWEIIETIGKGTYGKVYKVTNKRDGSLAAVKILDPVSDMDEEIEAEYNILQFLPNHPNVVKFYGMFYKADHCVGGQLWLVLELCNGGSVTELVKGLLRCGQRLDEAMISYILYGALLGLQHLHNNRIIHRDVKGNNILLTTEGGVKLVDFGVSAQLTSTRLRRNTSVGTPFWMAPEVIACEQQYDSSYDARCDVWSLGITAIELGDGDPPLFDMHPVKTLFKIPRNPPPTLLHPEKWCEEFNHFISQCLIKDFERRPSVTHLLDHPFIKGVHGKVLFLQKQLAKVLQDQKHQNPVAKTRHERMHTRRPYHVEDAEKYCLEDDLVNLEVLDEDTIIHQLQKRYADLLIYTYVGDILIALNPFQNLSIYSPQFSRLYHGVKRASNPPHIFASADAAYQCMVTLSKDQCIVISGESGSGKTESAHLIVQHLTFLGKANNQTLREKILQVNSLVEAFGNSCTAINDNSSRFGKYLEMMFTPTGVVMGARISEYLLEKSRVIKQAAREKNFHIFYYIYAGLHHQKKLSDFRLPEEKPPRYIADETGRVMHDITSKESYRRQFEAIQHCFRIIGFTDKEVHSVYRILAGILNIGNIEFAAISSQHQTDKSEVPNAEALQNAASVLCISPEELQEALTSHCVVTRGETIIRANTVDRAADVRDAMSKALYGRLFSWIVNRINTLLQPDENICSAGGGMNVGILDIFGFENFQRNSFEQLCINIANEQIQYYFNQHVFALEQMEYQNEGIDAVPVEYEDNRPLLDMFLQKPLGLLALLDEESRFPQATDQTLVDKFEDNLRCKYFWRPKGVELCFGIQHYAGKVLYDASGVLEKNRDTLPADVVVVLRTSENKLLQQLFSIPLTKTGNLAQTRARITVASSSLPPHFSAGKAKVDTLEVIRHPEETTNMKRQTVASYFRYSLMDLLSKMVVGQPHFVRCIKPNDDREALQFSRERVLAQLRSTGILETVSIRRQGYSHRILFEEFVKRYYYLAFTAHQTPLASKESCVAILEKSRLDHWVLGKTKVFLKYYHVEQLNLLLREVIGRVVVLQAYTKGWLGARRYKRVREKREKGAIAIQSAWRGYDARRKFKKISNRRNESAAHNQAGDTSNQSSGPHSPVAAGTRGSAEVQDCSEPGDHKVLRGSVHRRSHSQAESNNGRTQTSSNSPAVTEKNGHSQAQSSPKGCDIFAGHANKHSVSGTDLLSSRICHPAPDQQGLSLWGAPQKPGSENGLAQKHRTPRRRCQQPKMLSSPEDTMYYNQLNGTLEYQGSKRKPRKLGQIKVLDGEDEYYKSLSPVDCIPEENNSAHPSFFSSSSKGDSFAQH
Chain of Serine/threonine-protein kinase 25 (Homo sapiens) (O00506 whole entry, looked up): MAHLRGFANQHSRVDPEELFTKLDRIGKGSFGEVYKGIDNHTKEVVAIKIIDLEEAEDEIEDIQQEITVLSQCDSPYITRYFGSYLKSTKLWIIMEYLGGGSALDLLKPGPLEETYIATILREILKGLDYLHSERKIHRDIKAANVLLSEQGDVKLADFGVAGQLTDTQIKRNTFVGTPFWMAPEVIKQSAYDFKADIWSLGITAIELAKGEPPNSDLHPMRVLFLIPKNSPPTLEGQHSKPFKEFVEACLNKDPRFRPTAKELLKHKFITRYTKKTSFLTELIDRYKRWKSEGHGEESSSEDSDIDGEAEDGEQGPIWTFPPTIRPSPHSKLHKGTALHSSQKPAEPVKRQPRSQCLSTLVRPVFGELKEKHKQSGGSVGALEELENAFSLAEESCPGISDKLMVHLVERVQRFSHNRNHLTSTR

CSc1cccnc1N1CCN(Cc2nc3ccccc3[nH]2)CC1 [A-769]
inactive: [1] 98% | [2] 79% | [3] 100% | [4] 100% | [5] 100% | [6] 100% | [7] 100% | [8] 100% | [9] 67% | [10] 77% | [11] 93% | [12] 100% | [13] 100% | [14] 100% | [15] 100% | [16] 96% | [17] 100% | [18] 82% | [19] 100% | [20] 82% | [21] 80% | [22] 100% | [23] 100% | [24] 88% | [25] 100% | [26] 100% | [27] 64% | [28] 100% | [29] 73% | [30] 100% | [31] 78% | [32] 83% | [33] 100% | [34] 100% | [35] 100% | [36] 99% | [37] 100% | [38] 100% | [39] 87% | [40] 98% | [41] 81% | [42] 78% | [43] 100% | [44] 100% | [45] 100%

c1ccc(N2CCN(Cc3nc4ccccc4[nH]3)CC2)nc1 [ABT-724]
inactive: [1] 100% | [2] 100% | [3] 100% | [4] 94% | [5] 100% | [6] 100% | [7] 100% | [8] 100% | [9] 93% | [10] 100% | [11] 90% | [12] 100% | [13] 100% | [14] 79% | [15] 74% | [16] 79% | [17] 100% | [18] 100% | [19] 94% | [20] 100% | [21] 100% | [22] 100% | [23] 100% | [24] 100% | [25] 100% | [26] 93% | [27] 100% | [28] 86% | [29] 100% | [30] 100% | [31] 99% | [32] 87% | [33] 100% | [34] 100% | [35] 95% | [36] 89% | [37] 100% | [38] 97% | [39] 97% | [40] 100% | [41] 100% | [42] 100% | [43] 100% | [44] 94% | [45] 100%
